# Assay results taken from patent publication US9623021B2, “Nuclear receptor binding agents” (GTX, Inc., priority 2007, dated 2017).
# “Also recorded” adds a separate entry of the source.
# Experiments:
# [1] = target: ERα ligand binding domain (Homo sapiens (Human), UniProt P03372); test: Competitive [3H]-estradiol radioligand binding, ERα (Example 21)
# Method: (§1) ER binding affinity was determined via one of the following methods:
# (§2) Briefly, the incubation mixture was filtered through a high affinity protein binding filter, and washed several times to remove any unbound radioactivity. The filter plate was air dried and sealed on the bottom.
# (§3) Following incubation, plates were harvested onto GF/B filters and radioactivity was measured with a TopCount NXT (PerkinElmer). Nonspecific binding was subtracted from total binding to yield specific binding.
# [2] = test system: ARPE-19 cells; test: Fluorescent detection of intracellular ROS in ARPE-19 cells (tBH oxidative stress); conditions: 150 μM tBH, FIG. 20B
# [3] = target: ERβ ligand binding domain (Homo sapiens (Human), UniProt Q92731); test: Competitive [3H]-estradiol radioligand binding, ERβ (Example 21); conditions: ratio between the binding constants of ER-α and ER-β
# Chain of ERβ ligand binding domain (Q92731 264-498, species assumed): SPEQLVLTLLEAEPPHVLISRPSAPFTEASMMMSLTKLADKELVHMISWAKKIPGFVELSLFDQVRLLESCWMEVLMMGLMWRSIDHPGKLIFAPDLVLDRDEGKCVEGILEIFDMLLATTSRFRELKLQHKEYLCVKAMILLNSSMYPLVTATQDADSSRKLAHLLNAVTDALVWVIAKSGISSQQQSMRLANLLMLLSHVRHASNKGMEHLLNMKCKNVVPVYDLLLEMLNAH
# Method: as §1, §2, §3
# [4] = test system: THP-1 macrophage cell adhesion to bEND-3 endothelial cells; test: Macrophage adhesion assay (LPS induced THP-1 adhesion to bEND-3 endothelial cells); assay type: cell-based; conditions: FIG. 13
# Method: To determine the anti-inflammatory effects of ER-β NRBAs in vitro, a macrophage adhesion assay was performed. Macrophages adhere to endothelial cells due to elevated levels of pro-inflammatory cytokines. This principle was used in this assay to determine the effect of one of the ER-β NRBAs on bacterial lipopolysaccharide (LPS) induced THP-1 macrophage cell adhesion to bEND-3 endothelial cells.
# [5] = test system: SHP promoter; test: SHP promoter-luciferase in HEK-293 cells transfected with FXR and ER-α; assay type: cell-based; conditions: FIG. 12E left panel
# Method: (§4) FIG. 12 depict the effect of ER-β ligand on PPAR-γ function through ligand binding domain (LBD). (A). HEK-293 cells were transfected with 0.25 μg PPRE-LUC, 5 ng CMV-renilla LUC and the indicated receptors (PPAR-γ and ER-β for the left panel and PPAR-α and ER-β for the right panel). The cells were treated 24 hrs after transfection with the indicated ligands and harvested 48 hrs after transfection and firefly luciferase activity was measured and normalized to renilla luciferase. (B). H475 in ER-β LBD is important for its function. H475 in ER-β LBD was mutated to alanine (A) using a site directed mutagenesis kit. Transactivation assay was performed as described in panel A in HEK-293 cells with a titration of ER-β ligands in wild type or ER-β H475A. (C). […] The cells were treated 24 hrs after transfection with the indicated ligands and harvested 48 hrs after transfection and firefly luciferase activity was measured and normalized to renilla luciferase. […] The cells were treated 24 hrs after transfection with the indicated ligands and harvested 48 hrs after transfection and firefly luciferase activity was measured and normalized to renilla luciferase. […] The cells were treated 24 hrs after transfection with the indicated ligands and harvested 48 hrs after transfection and firefly luciferase activity was measured and normalized to renilla luciferase. […]
# [6] = target: T1, ER-α (Rattus norvegicus (Rat), UniProt P06211); assay type: cell-based; conditions: 100 nM NRBA compared to 1 nM estradiol
# Method: COS or 293 cells were plated in DME without phenol red+10% cs FBS at 90,000 cells per well in 24 well plates, and were transfected with 0.25 μg of the vector “ERE-LUC”, where a firefly luciferase gene was driven by two estrogen responsive elements and 0.02 μg of the control CMV-LUC, Renilla where a luciferase gene was driven by a CMV promoter. […] All the receptors were cloned from rat tissue into the PCR3.1 vector backbone. Twenty four hours post transfection, cells were treated with compounds of this invention, estrogen, DHT, and other NRBAs or combinations thereof. Cells were harvested 48 hrs after transfection, and assayed for firefly and Renilla luciferase activity.
# [7] = test system: SHP promoter; test: SHP promoter-luciferase in HEK-293 cells transfected with FXR and ER-β; assay type: cell-based; conditions: FXR and ER-β plasmids, FIG. 12E right panel
# Method: FIG. 12 depict the effect of ER-β ligand on PPAR-γ function through ligand binding domain (LBD). (A). HEK-293 cells were transfected with 0.25 μg PPRE-LUC, 5 ng CMV-renilla LUC and the indicated receptors (PPAR-γ and ER-β for the left panel and PPAR-α and ER-β for the right panel). The cells were treated 24 hrs after transfection with the indicated ligands and harvested 48 hrs after transfection and firefly luciferase activity was measured and normalized to renilla luciferase. (B). H475 in ER-β LBD is important for its function. H475 in ER-β LBD was mutated to alanine (A) using a site directed mutagenesis kit. Transactivation assay was performed as described in panel A in HEK-293 cells with a titration of ER-β ligands in wild type or ER-β H475A. (C). […] HEK-293 cells were transfected with 0.25 μg PPRE-LUC, 5 ng CMV-renilla LUC and 50 ng of the indicated receptors (PPAR-γ or PPAR-γ and wild type ER-β or PPAR-γ and ER-β H475A). The cells were treated 24 hrs after transfection with the indicated ligands and harvested 48 hrs after transfection and firefly luciferase activity was measured and normalized to renilla luciferase. (D). […] HepG2 cells were transfected with 0.25 μg PPRE-LUC, 5 ng CMV-renilla LUC, 0.5 μg PGC-1 or vector backbone and 100 ng of the indicated receptors (PPAR-γ or PPAR-γ and wild type ER-β or PPAR-γ and ER-β H475A for top panels and PPAR-α or PPAR-α and ER-β for bottom panel). The cells were treated 24 hrs after transfection with the indicated ligands and harvested 48 hrs after transfection and firefly luciferase activity was measured and normalized to renilla luciferase. (E). SHP-1 is an ER-β specific target gene. HEK-293 cells were transfected with 0.25 μg SHP-LUC, 5 ng CMV-renilla LUC and 50 ng of the indicated receptors (FXR and ER-α for the left panel and FXR and ER-β for the right panel). The cells were treated 24 hrs after transfection with the indicated ligands and harvested 48 hrs after transfection and firefly luciferase activity was measured and normalized to renilla luciferase. […]
# [8] = target: T1, ER-α; test: Transient transfection and reporter gene assay, ER-α, HEK-293 cells (Example 22A); assay type: cell-based; conditions: ERE-LUC
# Method: Human estrogen receptors (ER-α and ER-β) were cloned from prostate cDNA into a pCR3.1 plasmid vector backbone. PGC-1 was cloned into mammalian two hybrid vector pACT. ER-β H475 was mutated to alanine using site-directed mutagenesis. Sequencing was performed to determine the absence of any non specific mutations. SHP promoter (−572 to +10) (26) was cloned into pGL3 basic LUC reporter vector and human FXR was cloned into pCR3.1. HEK-293 cells were plated at 100,000 cells per well of a 24 well plate in […] (DMEM)+5% charcoal-stripped fetal bovine serum (csFBS). The cells were transfected using Lipofectamine (Invitrogen, Carlsbad, Calif.) with 0.25 μg ERE-LUC, 0.02 μg CMV-LUC (renilla luciferase) and 12.5 ng of rat ER-α or 25 ng rat ER-β. […] Luciferase assays were performed 48 hrs after transfection.
# To determine if the selectivity in ER binding also translated into ER-β-selective activity, transient transactivation assays were performed in HEK-293 cells transfected with plasmids encoding ER-α or ER-β and ERE-LUC. The cells were treated with varying concentrations of the ligands and their EC50 values were determined.
# [9] = test system: Ishikawa endometrial cells; test: Ishikawa growth assay (alkaline phosphatase); assay type: cell-based
# Method: Ishikawa cells were plated at 15,000 cells/well in 24 well plates in DME:F12 (1:1)+5% csFBS w/o phenol red. The cells were maintained in this medium at 37° C. for 3 days. Medium was changed immediately prior to drug treatment for an additional 72 hrs. After 72 hrs, the cells were fixed with formalin and the amount of alkaline phosphatase (ALP) measured by para-nitrophenyl phosphate method.
# This effect is one potential concern in the development of ER-α SERMs.
# [10] = test system: PPAR-γ; test: PPAR-γ transactivation (PPRE-LUC) in HEK-293 cells co-transfected with ER-β; assay type: cell-based; conditions: FIG. 12A left panel
# Method: as §4
# [11] = test system: PPAR-α; test: PPAR-α transactivation (PPRE-LUC) in HEK-293 cells co-transfected with ER-β; assay type: cell-based; conditions: FIG. 12A right panel
# Method: as §4
# [12] = test system: high fat diet fed C57BL6 mice; test: High fat diet induced obesity model, prevention studies (studies 1 and 2)
# Method: Study A: C57BL6 male mice of 4 weeks of age were divided into different groups and were fed with a normal or high fat diet (Harlan, Ind.).
# For the treatment study (study 3), the animals were maintained on the irrespective diets for 6 weeks and then treated daily as indicated for an additional 18 weeks. Biweekly body weights and food consumption were measured. The animals were sacrificed at the end of each study and blood and tissues were collected for RNA isolation, histology and protein estimation.
# Cholesterol and leptin concentrations were measured in serum using ELISA-based methods.
# Histology was performed on cryosections and stained with oil 0 red.
# Oral glucose tolerance tests (OGTT) were performed on 16-h fasted mice. Mice were given 150 mg glucose by oral gavage through a gastric tube.
# Six week old C57BL/6 mice were randomized, based on body weight, into three study groups as shown in the Study Parameters Table below.
# The mice were treated for 12 weeks. Twice weekly, the body weight and feed consumption were measured.
# A glucose tolerance test was also performed at the completion of the study by administering 150 mg glucose orally to the mice and measuring blood glucose levels at 0, 15, 30 and 60 minutes post glucose administration.
# At sacrifice, the mice organ weights were measured and collected for histology, gene expression and protein expressions. Blood was collected for serum marker determination (cholesterol, glucose, leptin).
# Dual energy X-ray absorptiometry (DEXA) was performed to measure the body composition in Study 1.
# An MRI scan was performed at the beginning of the study, after 6 weeks and at the completion of the study.
# [13] = Brown Adipose Tissue, vs high fat diet vehicle, >2-fold, p<0.01
# [14] = Liver, vs high fat diet vehicle, >2-fold, p<0.01
# [15] = White Adipose Tissue, vs high fat diet vehicle, >2-fold, p<0.01
# [16] = high fat diet, 30 mg/kg/day s.c., 12 weeks
# [17] = high fat diet, 30 mg/kg/day s.c., 12 weeks, FIG. 7
# [18] = high fat diet, 30 mg/kg/day s.c., 12 weeks, study 1
# [19] = high fat diet, 30 mg/kg/day s.c., Study 2
# Chain of ERα ligand binding domain (P03372 whole entry, looked up, species assumed, the tested form may be a part): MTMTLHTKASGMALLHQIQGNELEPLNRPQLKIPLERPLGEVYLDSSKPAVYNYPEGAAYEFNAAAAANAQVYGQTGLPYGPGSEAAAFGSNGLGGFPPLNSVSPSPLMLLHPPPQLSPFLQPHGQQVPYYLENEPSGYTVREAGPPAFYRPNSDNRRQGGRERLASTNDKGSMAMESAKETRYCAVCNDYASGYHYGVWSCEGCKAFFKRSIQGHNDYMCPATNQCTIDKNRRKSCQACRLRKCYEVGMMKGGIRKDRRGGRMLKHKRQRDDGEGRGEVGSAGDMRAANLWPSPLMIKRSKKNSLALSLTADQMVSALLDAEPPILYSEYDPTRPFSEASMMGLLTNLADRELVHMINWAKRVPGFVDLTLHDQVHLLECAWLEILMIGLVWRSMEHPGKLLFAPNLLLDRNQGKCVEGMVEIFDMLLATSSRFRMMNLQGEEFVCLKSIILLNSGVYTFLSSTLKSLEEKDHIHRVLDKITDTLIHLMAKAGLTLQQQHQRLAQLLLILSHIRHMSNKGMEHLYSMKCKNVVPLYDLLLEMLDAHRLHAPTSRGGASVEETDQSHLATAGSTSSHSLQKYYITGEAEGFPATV
structure (smiles),measurement,setting,value
"O=c1c2c(O)cc(O)cc2c(Cl)cn1-c1ccc(O)cc1 [Compound 12y, 4-chloro-6,8-dihydroxy-2-(4-hydroxyphenyl)isoquinolin-1(2H)-one]",Ki,[1],36 nM
same,prevention of ROS formation / oxidative damage,[2],protected ARPE-19 cells from oxidative damage
same,Ki Ratio (ER-α/ER-β),[3],11
same,adhesion of 3H labeled THP-1 cells to bEND-3 cells,[4],significantly inhibited the adhesion
"CCCc1c(-c2ccc(O)cc2)nn(-c2ccc(O)cc2)c1-c1ccc(O)cc1 [PPT, 1,3,5-tris(4-hydroxyphenyl)-4-propyl-1H-pyrazole]",SHP activity,[5],increased SHP activity
"N#Cc1cn(-c2ccc(O)cc2)c(=O)c2c(O)cc(O)cc12 [Compound 14m, 6,8-dihydroxy-2-(4-hydroxyphenyl)-1-oxo-1,2-dihydroisoquinoline-4-carbonitrile]","Estradiol activity at 100 nM, ER-α",[6],49%
same,SHP activity,[7],neither of the ligands activated SHP
same,function at ER-α in transactivation,[8],agonists
same,Ishikawa cell proliferation,[9]; FIG. 3C,weakly induce
same,concentration at which proliferation of Ishikawa cells was induced,"[9]; highest concentration tested, ALP assay, 72 hrs",1 µM
same,troglitazone-induced PPAR-γ activity,[10],partially inhibited
same,WY14643 induced PPAR-α transactivation,[11],did not affect
same,prevention of body weight increase caused by the high fat diet,"[12]; 30 mg/kg/day s.c., 12 weeks, Study 2",more than 50%
same,"high fat diet increase in expression of genes that promote lipogenesis (LPL, FASN, SREBP-1, PLTP, Dhcr24)",[12]; BAT and WAT,reversed
same,Ddit3 (DNA damage inducible transcript III) gene expression,[12]; [13],Decrease
same,Dhcr24 (dehydrocholesterol reductase) gene expression,[12]; [13],Decreased
same,ER-β (Estrogen receptor β) gene expression,[12]; [13],Increased
same,GPx-3 (glutathione peroxidase) gene expression,[12]; [13],Increase
same,LPL (lipoprotein lipase) gene expression,[12]; [13],Decrease
same,PLTP (phospholipid transfer protein) gene expression,[12]; [13],Decrease
same,UCP-1 (uncoupled protein-1) gene expression,[12]; [13],Increased
same,CIDEA (Cell death inducing DNA fragmentation factor) gene expression,[12]; [14],Decrease
same,GPx-3 (glutathione peroxidase) gene expression,[12]; [14],Increase
same,Ddit3 (DNA damage inducible transcript III) gene expression,[12]; [15],Decrease
same,FASN (fatty acid synthase) gene expression,[12]; [15],Decrease
same,LPL (lipoprotein lipase) gene expression,[12]; [15],Decrease
same,SREBP1 (Sterol regulatory element binding protein 1) gene expression,[12]; [15],Decrease
same,"bone mineral content (BMC), DEXA",[12]; [16],prevented the loss in BMC
same,serum cholesterol increase by high fat diet,[12]; [16],significantly reversed
same,serum leptin increase by high fat diet,[12]; [16],significantly reversed
same,white adipose tissue (WAT) weight,"[12]; high fat diet, 30 mg/kg/day s.c., 12 weeks, FIG. 6B",significantly reduced
same,gastrocnemius muscle weight,[12]; [17],increased gastrocnemius muscle weight
same,white adipose tissue (WAT) weight,[12]; [17],prevented the increase in the WAT weight; also recorded: comparably decreased WAT weight
same,body fat (DEXA),[12]; [18],suppressing fat mass formation
same,reduction in body weight compared to high fat diet and vehicle,[12]; [18],greater than 85%
same,weight gained more than normal diet-fed controls,[12]; [18],5%
same,serum macrophage inflammatory protein-1β (MIP-1β) increase by high fat diet,"[12]; high fat diet, 30 mg/kg/day s.c., FIG. 6F",completely reversed
same,accumulation of fat in the liver (oil red staining),"[12]; high fat diet, 30 mg/kg/day s.c., FIG. 8",attenuated the accumulation of lipid droplets in the liver; also recorded: completely prevented the accumulation of fat in the liver
same,fat mass (MRI),[12]; [19],reduce fat mass
same,lean mass (MRI),[12]; [19],increase muscle mass; also recorded: increased the lean mass
same,prevention of the increase in body fat (MRI),[12]; [19],more than 50%
same,total caloric intake (feed consumption),"[12]; high fat diet, 30 mg/kg/day s.c., study 1",did not affect total caloric intake
same,"blood glucose levels, glucose tolerance test","[12]; high fat diet, 30 mg/kg/day s.c., 150 mg glucose orally",not statistically different from the normal diet controls
same,testes weights,"[12]; high fat diet, 12 weeks, FIG. 9A",not altered
same,serum testosterone levels,"[12]; high fat diet, 12 weeks, FIG. 9B",did not affect; also recorded: not altered
same,serum follicle stimulating hormone (FSH),"[12]; high fat diet, 12 weeks, FIG. 9C",did not affect; also recorded: not altered
